Reference: article PMC6335420, “The cell cycle regulator GpsB functions as cytosolic adaptor for multiple cell wall enzymes” (Nature Communications, 2019)
Entries after “also recorded” stand apart in the source; their conditions may differ. Residues, ends and D or L forms follow the SMILES beside them. *: point of attachment. Fluorescein(5-Mal) = O=C1OC2(c3ccc(O)cc3Oc3cc(O)ccc32)c2ccc(N3C(=O)CC(*)C3=O)cc21; X1 = CN(C)c1ccc2c(-c3ccc(N4C(=O)CC(*)C4=O)cc3C(=O)[O-])c3ccc(=[N+](C)C)cc-3oc2c1

What was measured:
[1] = biological target: T1, BsGpsB1-68Lys32Glu (Bacillus subtilis, UniProt P0CI74, K32E); assay: Fluorescence polarisation binding to BsGpsB1-68Lys32Glu; details: FP
T1 construct: His6 (N, cleaved yes); made in house; host or cells: E. coli BL21(DE3)
From the text: (§1) 75 the BsGpsB5-64:BsPBP11-17 complex.

[2] = biological target: T2, LmGpsB1-73 (Listeria monocytogenes serovar 1/2a, UniProt Q8Y614); assay: Fluorescence polarisation binding to LmGpsB1-73; details: FP
T2 construct: made in house; host or cells: E. coli BL21(DE3)
From the text: as §1

[3] = system: L. monocytogenes; assay: L. monocytogenes fosfomycin susceptibility (filter disc); type: cell-based, Listeria monocytogenes EGD-e; details: halo around filter disc, BHI agar, 37 °C; pbpA1 R8A,R12A and Q10P mutants; triplicate
Experimental: Fosfomycin susceptibility was recorded using filter discs (Ø 6 mm) soaked with 10 µL of a 10 mg^−1mL^−1 fosfomycin solution. L. monocytogenes colonies, grown on BHI agar plates, were resuspended in BHI broth and used to swab-inoculate BHI agar plates. Filter discs soaked with fosfomycin were placed on top of the agar surface and the plates were incubated at 37 °C overnight. Diameter of growth inhibition zones was measured and corrected for the filter disc diameter. All experiments were performed three times and average values and standard deviations were calculated. Significance was determined using the t-test and differences were considered to be significant when P < 0.01.

[4] = system: L. monocytogenes; details: 37 °C, vs wild-type L. monocytogenes; cited from earlier work
[5] = biological target: T3, BsGpsB1-68Glu17Ala (Bacillus subtilis, UniProt P0CI74, E17A); assay: Fluorescence polarisation binding to BsGpsB1-68Glu17Ala; details: FP, BsGpsB1-68Glu17Ala relative to wild-type BsGpsB1-68
T3 construct: Glu17Ala, Asp31Ala and Asp35Ala mutations were introduced to the BsGpsB1-68 expression construct plasmid; His6 (N, cleaved yes); made in house; host or cells: E. coli BL21(DE3)
From the text: as §1

[6] = biological target: T4, BsGpsB1-68Tyr25Phe (Bacillus subtilis, UniProt P0CI74, Y25F); assay: Fluorescence polarisation binding to BsGpsB1-68Tyr25Phe; details: FP, BsGpsB Tyr25Phe relative to wild-type BsGpsB1-68
T4 construct: correspond to BsGpsB1-68^Asp31Ala and BsGpsB1-68^Tyr25Phe mutants, respectively; His6 (N, cleaved yes); made in house; host or cells: E. coli BL21(DE3)
From the text: as §1

[7] = biological target: T5, BsGpsB1-68Asp31Ala (Bacillus subtilis, UniProt P0CI74, D31A); assay: Fluorescence polarisation binding to BsGpsB1-68Asp31Ala; details: FP, BsGpsB Asp31Ala relative to wild-type BsGpsB1-68
T5 construct: Glu17Ala, Asp31Ala and Asp35Ala mutations were introduced to the BsGpsB1-68 expression construct plasmid; His6 (N, cleaved yes); made in house; host or cells: E. coli BL21(DE3)
From the text: as §1

[8] = biological target: T6, BsGpsB1-68Asp35Ala (Bacillus subtilis, UniProt P0CI74, D35A); assay: Fluorescence polarisation binding to BsGpsB1-68Asp35Ala; details: FP, BsGpsB1-68Asp35Ala relative to wild-type BsGpsB1-68
T6 construct: Glu17Ala, Asp31Ala and Asp35Ala mutations were introduced to the BsGpsB1-68 expression construct plasmid; His6 (N, cleaved yes); made in house; host or cells: E. coli BL21(DE3)
From the text: as §1

[9] = Circular dichroism of PBP peptides (helicity); type: physicochemical; details: CD, 222 nm, 4 °C, 20 mM sodium phosphate pH 7.3, 25 μM peptide
Experimental: CD spectra were recorded on a JASCO J-810 spectropolarimeter with a PTC-4235 Peltier temperature controller using 1 mm path length quartz cuvettes. For full wavelength scans a scan speed of 10 nm^−1min^−1 and a response time of 4 s were used, the final spectra were the average of at least four measurements. BsPBP1_1-32 CD spectra were recorded at 4 °C in a buffer of 20 mM sodium phosphate, pH 7.3 at a peptide concentration of 25 μM. Peptide helical contents were estimated from molar ellipticities at 222 nm using the equation helix = [θ]222 nm / (39,500(1–2.57/n))[78] where n is the number of residues in the peptide. LmPBPA1_1-15 CD spectra were analysed at 40 μM in 20 mM sodium phosphate buffer, pH 7.8, for samples containing 0, 40 and 60% trifluoroethanol (TFE). For samples containing 80% TFE, 5 mM sodium phosphate buffer, pH 7.8, was used. The CD spectra of BsGpsB1-68 proteins were measured at a concentration of 4.5 μM in a buffer of 20 mM sodium phosphate (pH 7.8) 150 mM NaCl. For thermal melt experiments, a response time of 8 s and scan rate of 1 °C^−1min^−1 were used. All thermal melts were reversible as CD spectra recorded before and after the melts in the wavelength range 200–240 nm could be superimposed.

[10] = biological target: full-length BsPBP1; assay: SPR binding to immobilised full-length BsPBP1; set-up: species or system Bacillus subtilis
From the text: (§2) BsPBP1 and BsPBP1_17-914 were immobilised on the surface of a CM5 chip (GE Healthcare). For the BsPBP1/YrrSΔ13-16 titration 800 RUs of BsPBP1 were immobilised on the chip surface; for the BsPBP1/BsGpsB titration 1200 RUs of BsPBP1 were immobilised. YrrSΔ13-16, which lacks residues 13–16 in the cytoplasmic domain, was used in these experiments to minimise non-specific interactions with the chip matrix; binding of YrrSΔ13-16 to the reference surface was negligible and the deletion of residues 13–16 leaves the GpsB-binding motif intact. The YrrSΔ13-16 titration was carried out in single-cycle mode, without regenerating the surface between successive injections of protein, because harsh reagents were necessary for full surface regeneration.

[11] = system: BsPBP1_17-914; assay: SPR binding to immobilised BsPBP1_17-914; set-up: species or system Bacillus subtilis; details: chip coated with BsPBP1_17-914, even when 25 µM BsGpsB injected
From the text: as §2

[12] = biological target: T7, full-length BsPBP1 (Bacillus subtilis PBP1) (B. subtilis, UniProt P39793 1-914); assay: SPR; BsPBP1 or BsPBP1_(17-914) immobilised on a CM5 chip (1200 RUs of BsPBP1); BsGpsB injected; 10 mM Tris.HCl pH 8.0, 250 mM NaCl, 0.1% reduced Triton X-100; details: both partners purified
T7 construct: also called wild-type BsPBP1; source: E. coli, purified from membrane pellets (His select resin, thrombin, Superdex S200)
T7 sequence (looked up): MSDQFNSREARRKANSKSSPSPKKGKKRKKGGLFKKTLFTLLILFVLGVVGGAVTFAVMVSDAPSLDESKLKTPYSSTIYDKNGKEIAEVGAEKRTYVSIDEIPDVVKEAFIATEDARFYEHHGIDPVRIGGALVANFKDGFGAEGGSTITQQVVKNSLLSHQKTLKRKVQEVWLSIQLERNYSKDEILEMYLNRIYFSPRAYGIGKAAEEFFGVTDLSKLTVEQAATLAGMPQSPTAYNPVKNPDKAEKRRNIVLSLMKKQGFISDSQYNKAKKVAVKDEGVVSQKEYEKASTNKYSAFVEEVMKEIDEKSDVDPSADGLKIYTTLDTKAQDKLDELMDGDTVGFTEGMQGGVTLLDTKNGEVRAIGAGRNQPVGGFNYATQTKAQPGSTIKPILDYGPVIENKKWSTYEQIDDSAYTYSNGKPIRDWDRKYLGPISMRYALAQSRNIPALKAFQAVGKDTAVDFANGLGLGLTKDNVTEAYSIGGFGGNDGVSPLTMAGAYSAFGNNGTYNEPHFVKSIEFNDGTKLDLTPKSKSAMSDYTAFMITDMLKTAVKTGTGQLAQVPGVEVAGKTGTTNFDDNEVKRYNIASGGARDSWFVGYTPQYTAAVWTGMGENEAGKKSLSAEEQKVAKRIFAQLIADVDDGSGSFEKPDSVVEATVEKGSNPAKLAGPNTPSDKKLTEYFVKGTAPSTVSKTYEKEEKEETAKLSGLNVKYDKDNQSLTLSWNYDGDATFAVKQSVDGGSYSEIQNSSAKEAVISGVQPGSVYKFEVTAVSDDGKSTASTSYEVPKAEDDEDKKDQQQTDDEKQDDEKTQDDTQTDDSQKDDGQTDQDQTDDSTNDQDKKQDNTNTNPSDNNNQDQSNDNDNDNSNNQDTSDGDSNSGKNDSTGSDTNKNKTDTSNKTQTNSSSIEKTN

For `CSCC[C@H](NC(=O)[C@H](CO)NC(=O)CN)C(=O)N[C@@H](C)C(=O)N[C@@H](CC(=O)O)C(=O)N[C@@H](CCCCN)C(=O)N1CCC[C@H]1C(=O)N[C@@H](CCC(N)=O)C(=O)N[C@H](C(=O)N[C@@H](CCCNC(=N)N)C(=O)N[C@@H](CO)C(=O)N[C@@H](CCC(N)=O)C(=O)N[C@@H](Cc1ccc(O)cc1)C(=O)N[C@@H](CCCNC(=N)N)C(=O)N[C@@H](CC(N)=O)C(=O)N[C@@H](CCCCN)C(=O)N[C@@H](CCC(N)=O)C(=O)N[C@@H](CO)C(=O)NCC(=O)NCC(=O)N[C@@H](CSC1CC(=O)N(c2ccc3c(c2)C(=O)OC32c3ccc(O)cc3Oc3cc(O)ccc32)C1=O)C(=O)N[C@@H](CCCCN)C(=O)O)[C@@H](C)O` (some centres unmarked) [Fluorescein-LmPBPA11-20] (H-GSMADKPQTRSQYRNKQSGGC(Fluorescein(5-Mal))K-OH; N-terminus and C-terminus assumed), the “binding to BsGpsB1-68Lys32Glu (in words)” value [1] was “almost identical” and the “binding to LmGpsB1-73 (in words)” value [2] was “affinity similar to that of BsPBPA1_1-32 for BsGpsB1-68”.

For `C[C@@H]1O[C@@H]1P(=O)(O)O` [fosfomycin], the fosfomycin sensitivity [3] is given as “Effects on fosfomycin sensitivity were apparent in mutants carrying the pbpA1^Arg8Ala,Arg12Ala and pbpA1^Gln10Pro alleles but only when LmPBPA2, the LmPBPA1 paralogue, was also absent” and the “fosfomycin susceptibility of ΔgpsB mutants” value [4] is given as “more susceptible”.

In the case of `CSCC[C@H](NC(=O)[C@H](CO)NC(=O)CN)C(=O)N[C@@H](C)C(=O)N[C@@H](CC(=O)O)C(=O)N[C@@H](CCC(N)=O)C(=O)N[C@@H](Cc1ccccc1)C(=O)N[C@@H](CC(N)=O)C(=O)N[C@@H](CO)C(=O)N[C@@H](CCCNC(=N)N)C(=O)N[C@@H](CCC(=O)O)C(=O)N[C@@H](C)C(=O)N[C@@H](CCCNC(=N)N)C(=O)N[C@@H](CCCNC(=N)N)C(=O)N[C@@H](CCCCN)C(=O)N[C@@H](C)C(=O)N[C@@H](CC(N)=O)C(=O)N[C@@H](CSC1CC(=O)N(c2ccc(-c3c4ccc(=[N+](C)C)cc-4oc4cc(N(C)C)ccc34)c(C(=O)[O-])c2)C1=O)C(=O)N[C@@H](CCCCN)C(=O)N[C@@H](CO)C(=O)N[C@@H](CO)C(=O)N1CCC[C@H]1C(=O)N[C@@H](CO)C(=O)N1CCC[C@H]1C(=O)N[C@@H](CCCCN)C(=O)N[C@@H](CCCCN)C(=O)NCC(=O)N[C@@H](CCCCN)C(=O)N[C@@H](CCCCN)C(=O)N[C@@H](CCCNC(=N)N)C(=O)N[C@@H](CCCCN)C(=O)N[C@@H](CCCCN)C(=O)NCC(=O)NCC(=O)O` (some centres unmarked) [TAMRA-BsPBP11-32] (H-GSMADQFNSREARRKANC(X1)KSSPSPKKGKKRKKGG-OH), the “reduction in affinity on GpsB mutation” value [5] is reported as “more than 8 fold”, the “reduction in affinity on GpsB mutation” value [6] is reported as “more than 8 fold” and the “reduction in affinity on GpsB mutation” value [7] is reported as “more than 8 fold”. The “reduction in affinity on GpsB mutation” value [8] was “more than 8 fold”, the “helical residues corresponding to helical content” value [9] was ~ 5 residues and the α-helical content ([9]; average of at least four measurements) was 14%.

B1: full-length BsGpsB (Bacillus subtilis GpsB) (natural protein, B. subtilis, UniProt P0CI74 1-98, looked up)
chain: MLADKVKLSAKEILEKEFKTGVRGYKQEDVDKFLDMIIKDYETFHQEIEELQQENLQLKKQLEEASKKQPVQSNTTNFDILKRLSNLEKHVFGSKLYD
notes: GpsB, Bacillus subtilis; purification of the full-length protein is not described here; source: E. coli BL21(DE3) used for recombinant protein production)
With B1 the Kd ([10]; SPR, PBP1-coated chip, full-length GpsB data fit 1:1 only over limited concentration range (avidity), BsGpsB1-68 supports 1:1, peer review file, read-out: affinity / Kd by SPR) was 700 nM, the “SPR binding (in words)” value ([10]; chip coated with wild-type BsPBP1 (1200 RU), submicromolar BsGpsB) was “submicromolar concentrations of BsGpsB bound to chips coated with the wild-type BsPBP1” and the “SPR binding (in words)” value [11] was “does not interact; also recorded: no interaction”. B1: binds [12].
